The values below come from ChEMBL document CHEMBL1909590, “Design, synthesis and docking studies of new quinoline-3-carbohydrazide derivatives as antitubercular agents” (2011).

Holding throughout (type): functional
The subject of test [1] is Mycobacterium tuberculosis. In words: Antimycobacterial activity against Mycobacterium tuberculosis H37Rv ATCC 27294 using compound level ranging from 0.3125 to 5 ug/mL after 7 days by resazurin reduction test. As to conditions: H37Rv ATCC 27294, 168 h. On the technique in general: Resazurin is reduced to fluorescent resorufin, in cell work by metabolically active cells.

The test system of test [2] is Mycolicibacterium fortuitum. In words: Antimycobacterial activity against Mycobacterium fortuitum ATCC 19542 using compound level ranging from 1 to 100 ug/mL after 7 days by resazurin reduction test. Conditions: ATCC 19542, 168 h.
In a further test the test system is Pseudomonas aeruginosa. As to the kind of experiment: Antibacterial activity against Pseudomonas aeruginosa ATCC 27853 after 18 to 25 hrs by serial plate dilution method.
The next test concerns Klebsiella pneumoniae. As to the kind of experiment: Antibacterial activity against Klebsiella pneumoniae clinical isolates after 18 to 25 hrs by serial plate dilution method.
The next test has as its system Streptococcus pyogenes. As to the kind of experiment: Antibacterial activity against Streptococcus pyogenes clinical isolate after 18 to 25 hrs by serial plate dilution method.
Test [3] deals with Mycobacterium tuberculosis. As to the kind of experiment: Antimycobacterial activity against Mycobacterium tuberculosis H37Rv ATCC 27294 using compound level ranging from 1 to 100 ug/mL after 7 days by resazurin reduction test. Conditions: H37Rv ATCC 27294, 168 h.
The test system of test [4] is Mycobacterium tuberculosis. As to the kind of experiment: Growth inhibition of Mycobacterium tuberculosis H37Rv ATCC 27294 using compound level ranging from 1 to 100 ug/mL after 7 days by resazurin reduction test.
Test [5] deals with Mycolicibacterium smegmatis. As to the kind of experiment: Antimycobacterial activity against Mycobacterium smegmatis MC2 ATCC 19420 using compound level ranging from 1 to 100 ug/mL after 7 days by resazurin reduction test. As to conditions: MC2 ATCC 19420, 168 h.
The subject of the next test is Staphylococcus aureus. In words: Antibacterial activity against Staphylococcus aureus ATCC 25923 after 18 to 25 hrs by serial plate dilution method.
In another test the test system is Escherichia coli. As to the kind of experiment: Antibacterial activity against Escherichia coli ATCC 25922 after 18 to 25 hrs by serial plate dilution method.
The subject of test [6] is Mycolicibacterium smegmatis. In words: Antimycobacterial activity against Mycobacterium smegmatis MC2 ATCC 19420 using compound level ranging from 0.3125 to 5 ug/mL after 7 days by resazurin reduction test. As to conditions: MC2 ATCC 19420, 168 h.

Molecules are shown by their SMILES. Converted amounts (≈) assume the structure as drawn. A value given as a limit tells only on which side of the number the result lay.

The MIC is the lowest concentration found to suppress growth. A high value points to weaker potency. In the case of `CCc1ccc(NC(=O)NNC(=O)c2cnc3c(C(F)(F)F)cccc3c2O)cc1`, the MIC in test [1] was 12.5 µg/mL (≈ 29.9 µM); in [2], over 100 µg/mL; with Pseudomonas aeruginosa, 12.5 µg/mL (≈ 29.9 µM); in the test with Klebsiella pneumoniae, 6.25 µg/mL (≈ 14.9 µM); in the test with Streptococcus pyogenes, 12.5 µg/mL (≈ 29.9 µM); in [3], 10 µg/mL (≈ 23.9 µM). The MIC in test [5] is over 100 µg/mL; in the test with Staphylococcus aureus it was 6.25 µg/mL (≈ 14.9 µM); in the test with Escherichia coli it was 3.12 µg/mL (≈ 7.46 µM). The “growth inhibition (GI)” value in [4] is recorded as under 90%.

On to `COc1ccc(NC(=S)NNC(=O)c2cnc3c(C(F)(F)F)cccc3c2O)cc1`, for which the MIC in test [1] is 5 µg/mL (≈ 11.5 µM); in [2], over 100 µg/mL; in the test with Pseudomonas aeruginosa, 1.6 µg/mL (≈ 3.67 µM); in the test with Klebsiella pneumoniae, 3.12 µg/mL (≈ 7.15 µM); in the test on Streptococcus pyogenes, 0.8 µg/mL (≈ 1.83 µM); in [3], 10 µg/mL (≈ 22.9 µM). The MIC is over 100 µg/mL in [5], 1.6 µg/mL (≈ 3.67 µM) against Staphylococcus aureus and 6.25 µg/mL (≈ 14.3 µM) in the test with Escherichia coli. Also, the “growth inhibition (GI)” value in test [4] is under 90%.

Consider `O=C(O)c1cn(C2CC2)c2cc(N3CCNCC3)c(F)cc2c1=O` [CIPROFLOXACIN], for which the figures for the minimum inhibitory concentration (MIC) in the test with Pseudomonas aeruginosa and against Staphylococcus aureus were 0.4 µg/mL (≈ 1.21 µM) and 1 µg/mL (≈ 3.02 µM), respectively.

`Cn1nnc2cc(/C=N\NC(=O)c3cnc4c(C(F)(F)F)cccc4c3O)ccc21`: the minimum inhibitory concentration (MIC) is 5 µg/mL (≈ 12.1 µM) in [1]; over 100 µg/mL in test [2]; 1.6 µg/mL (≈ 3.86 µM) in the test with Pseudomonas aeruginosa; 0.8 µg/mL (≈ 1.93 µM) against Klebsiella pneumoniae; 0.4 µg/mL (≈ 0.965 µM) with Streptococcus pyogenes; 10 µg/mL (≈ 24.1 µM) in test [3]. Moreover, the MIC is over 100 µg/mL in test [5], 0.8 µg/mL (≈ 1.93 µM) with Staphylococcus aureus and 0.4 µg/mL (≈ 0.965 µM) in the test with Escherichia coli. Also, the “growth inhibition (GI)” value in test [4] is reported as under 90%.

Turning to `Cc1ccc(/C=N/NC(=O)c2cnc3c(C(F)(F)F)cccc3c2O)cc1`, the MIC is 10 µg/mL (≈ 26.8 µM) in test [1]; over 100 µg/mL in [2]; 3.12 µg/mL (≈ 8.36 µM) against Pseudomonas aeruginosa; 0.8 µg/mL (≈ 2.14 µM) against Klebsiella pneumoniae; 3.12 µg/mL (≈ 8.36 µM) in the test with Streptococcus pyogenes; 10 µg/mL (≈ 26.8 µM) in [3]. Moreover, the minimum inhibitory concentration (MIC) was over 100 µg/mL in test [5], 1.6 µg/mL (≈ 4.29 µM) with Staphylococcus aureus and 3.12 µg/mL (≈ 8.36 µM) against Escherichia coli. Besides, the “growth inhibition (GI)” value in [4] was under 90%.

Regarding `Cc1cc(C)cc(NC(=O)NNC(=O)c2cnc3c(C(F)(F)F)cccc3c2O)c1`, the minimum inhibitory concentration (MIC) in [1] was 2.5 µg/mL (≈ 5.98 µM); in [2], over 100 µg/mL; against Pseudomonas aeruginosa, 3.12 µg/mL (≈ 7.46 µM); with Klebsiella pneumoniae it was 3.12 µg/mL (≈ 7.46 µM); against Streptococcus pyogenes it was 1.6 µg/mL (≈ 3.82 µM); in test [3], 10 µg/mL (≈ 23.9 µM). In addition, the minimal inhibitory concentration (MIC) in [5] is over 100 µg/mL; against Staphylococcus aureus, 0.8 µg/mL (≈ 1.91 µM); against Escherichia coli it was 3.12 µg/mL (≈ 7.46 µM). Besides, in [4], the “growth inhibition (GI)” value is reported as under 90%.

For the compound `COC(=O)Cc1cc(/C=N/NC(=O)c2cnc3c(C(F)(F)F)cccc3c2O)co1`, the minimum inhibitory concentration (MIC) in test [1] is 5 µg/mL (≈ 11.9 µM); in test [2], over 100 µg/mL; in the test with Pseudomonas aeruginosa, 12.5 µg/mL (≈ 29.7 µM); against Klebsiella pneumoniae, 6.25 µg/mL (≈ 14.8 µM); with Streptococcus pyogenes, 12.5 µg/mL (≈ 29.7 µM); in test [3] it was 10 µg/mL (≈ 23.7 µM). The MIC is over 100 µg/mL in test [5], 6.25 µg/mL (≈ 14.8 µM) against Staphylococcus aureus and 3.12 µg/mL (≈ 7.41 µM) against Escherichia coli. Further, the “growth inhibition (GI)” value in test [4] was under 90%.

For the compound `Cc1ccc(NC(=S)NNC(=O)c2cnc3c(C(F)(F)F)cccc3c2O)cc1`, the minimum inhibitory concentration (MIC) in [2] was over 100 µg/mL; in the test with Pseudomonas aeruginosa, 6.25 µg/mL (≈ 14.9 µM); in the test with Klebsiella pneumoniae, 12.5 µg/mL (≈ 29.7 µM); against Streptococcus pyogenes, 3.12 µg/mL (≈ 7.42 µM); in test [3], over 100 µg/mL; in [5] it was over 100 µg/mL. The figures for the MIC against Staphylococcus aureus and with Escherichia coli were 1.6 µg/mL (≈ 3.81 µM) and 12.5 µg/mL (≈ 29.7 µM), respectively. In test [4], the “growth inhibition (GI)” value turned out to be 0%.

Regarding `O=C(NNC(=S)Nc1cccnc1)c1cnc2c(C(F)(F)F)cccc2c1O`, the MIC is over 100 µg/mL in [2]; 12.5 µg/mL (≈ 30.7 µM) against Pseudomonas aeruginosa; 6.25 µg/mL (≈ 15.3 µM) against Klebsiella pneumoniae; 12.5 µg/mL (≈ 30.7 µM) against Streptococcus pyogenes; over 100 µg/mL in [3]; over 100 µg/mL in test [5]. In addition, the MIC is 6.25 µg/mL (≈ 15.3 µM) against Staphylococcus aureus and 3.12 µg/mL (≈ 7.66 µM) in the test on Escherichia coli. In addition, in [4], the “growth inhibition (GI)” value is 0%.

Regarding `O=C(N/N=C/c1ccncc1)c1cnc2c(C(F)(F)F)cccc2c1O`, the MIC in [2] is over 100 µg/mL; against Pseudomonas aeruginosa, 12.5 µg/mL (≈ 34.7 µM); in the test on Klebsiella pneumoniae, 6.25 µg/mL (≈ 17.3 µM); against Streptococcus pyogenes, 12.5 µg/mL (≈ 34.7 µM); in test [3], over 100 µg/mL; in test [5], over 100 µg/mL. The values for the minimal inhibitory concentration (MIC) in the test on Staphylococcus aureus and with Escherichia coli were 6.25 µg/mL (≈ 17.3 µM) and 12.5 µg/mL (≈ 34.7 µM), respectively. Further, in test [4], the “growth inhibition (GI)” value stood at 0%.

For `COc1ccc(/C=N/NC(=O)c2cnc3c(C(F)(F)F)cccc3c2O)cc1O`, the minimal inhibitory concentration (MIC) in [1] is 10 µg/mL (≈ 24.7 µM); in test [2] it was over 100 µg/mL; against Pseudomonas aeruginosa it was 6.25 µg/mL (≈ 15.4 µM); in the test with Klebsiella pneumoniae, 12.5 µg/mL (≈ 30.8 µM); against Streptococcus pyogenes it was 1.6 µg/mL (≈ 3.95 µM); in [3] it was 10 µg/mL (≈ 24.7 µM). Further, the MIC is over 100 µg/mL in test [5], 1.6 µg/mL (≈ 3.95 µM) in the test with Staphylococcus aureus and 12.5 µg/mL (≈ 30.8 µM) against Escherichia coli. Also, the “growth inhibition (GI)” value in [4] is under 90%.

In the case of `O=C(NNC(=O)c1cnc2c(C(F)(F)F)cccc2c1O)Nc1cccc(Cl)c1`, the minimum inhibitory concentration (MIC) in test [1] was 10 µg/mL (≈ 23.5 µM); in test [2] it was over 100 µg/mL; with Pseudomonas aeruginosa it was 1.6 µg/mL (≈ 3.77 µM); in the test with Klebsiella pneumoniae, 0.8 µg/mL (≈ 1.88 µM); against Streptococcus pyogenes it was 0.4 µg/mL (≈ 0.942 µM); in [3], 10 µg/mL (≈ 23.5 µM). Further, the MIC in test [5] was over 100 µg/mL; against Staphylococcus aureus, 0.8 µg/mL (≈ 1.88 µM); against Escherichia coli, 3.12 µg/mL (≈ 7.35 µM). Moreover, in [4], the “growth inhibition (GI)” value was under 90%.

As to `CSc1ccccc1/C=N/NC(=O)c1cnc2c(C(F)(F)F)cccc2c1O`, the MIC in [2] was over 100 µg/mL; against Pseudomonas aeruginosa, 3.12 µg/mL (≈ 7.7 µM); in the test with Klebsiella pneumoniae it was 3.12 µg/mL (≈ 7.7 µM); with Streptococcus pyogenes, 3.12 µg/mL (≈ 7.7 µM); in [3], over 100 µg/mL; in test [5], over 100 µg/mL. The MIC against Staphylococcus aureus turned out to be 1.6 µg/mL (≈ 3.95 µM); with Escherichia coli it was 6.25 µg/mL (≈ 15.4 µM). The “growth inhibition (GI)” value in [4] is listed as 0%.

Consider `O=C(N/N=C/c1ccc(OC(F)(F)C(F)F)cc1)c1cnc2c(C(F)(F)F)cccc2c1O`, for which the minimal inhibitory concentration (MIC) in test [1] is 5 µg/mL (≈ 10.5 µM); in test [2], over 100 µg/mL; with Pseudomonas aeruginosa, 6.25 µg/mL (≈ 13.1 µM); with Klebsiella pneumoniae it was 3.12 µg/mL (≈ 6.56 µM); against Streptococcus pyogenes, 12.5 µg/mL (≈ 26.3 µM); in test [3] it was 10 µg/mL (≈ 21 µM). Also, the MIC in [6] turned out to be 10 µg/mL (≈ 21 µM); in [5] it was 10 µg/mL (≈ 21 µM); with Staphylococcus aureus, 3.12 µg/mL (≈ 6.56 µM); with Escherichia coli it was 6.25 µg/mL (≈ 13.1 µM). Besides, the “growth inhibition (GI)” value in test [4] is given as under 90%.

Take `O=C(NNC(=S)Nc1cccc(Cl)c1)c1cnc2c(C(F)(F)F)cccc2c1O`: the MIC in test [1] is 2.5 µg/mL (≈ 5.67 µM); in test [2], over 100 µg/mL; in the test with Pseudomonas aeruginosa, 3.12 µg/mL (≈ 7.08 µM); against Klebsiella pneumoniae, 3.12 µg/mL (≈ 7.08 µM); against Streptococcus pyogenes, 1.6 µg/mL (≈ 3.63 µM); in test [3] it was 10 µg/mL (≈ 22.7 µM). Besides, the minimal inhibitory concentration (MIC) in test [6] was found to be 2.5 µg/mL (≈ 5.67 µM); in test [5], 10 µg/mL (≈ 22.7 µM); against Staphylococcus aureus, 0.8 µg/mL (≈ 1.81 µM); with Escherichia coli, 3.12 µg/mL (≈ 7.08 µM). Besides, the “growth inhibition (GI)” value in [4] is on record as under 90%.

As for `O=C(N/N=C/c1ccc2c(c1)CCO2)c1cnc2c(C(F)(F)F)cccc2c1O`, the MIC was over 100 µg/mL in test [2]; 3.12 µg/mL (≈ 7.77 µM) against Pseudomonas aeruginosa; 6.25 µg/mL (≈ 15.6 µM) with Klebsiella pneumoniae; 3.12 µg/mL (≈ 7.77 µM) with Streptococcus pyogenes; over 100 µg/mL in [3]; over 100 µg/mL in test [5]. The MIC in the test with Staphylococcus aureus stood at 1.6 µg/mL (≈ 3.99 µM); in the test with Escherichia coli, 12.5 µg/mL (≈ 31.1 µM). Moreover, the “growth inhibition (GI)” value in test [4] worked out at 0%.
